Source: US20240165151A1, “COMPOSITIONS AND METHODS FOR TREATING UPPER RESPIRATORY INFECTIONS” (priority 2020, published 2024)
Read-outs that look alike come from different tables or passages of the source. Marks after values point to notes of the source that are not given here.

Legend:
influenza virus = conditions: cited from earlier work
SARS-CoV-2 [1] = conditions: cited from earlier work
SARS-CoV-2 [2] = type: cell-based; conditions: for Virus CCID50 per well ± SD: 22±2°C, average of 3 replicates; for LRV (log reduction value): compared to the virus control

In the case of `CCOC(=O)C1=C[C@@H](OC(CC)CC)[C@H](NC(C)=O)[C@@H](N)C1` [Oseltamivir], the “influenza RNA concentration decrease” value (influenza virus; on day 2) is given as −1.19 log10 copies/mL and the “influenza RNA concentration decrease” value (influenza virus; on day 4) is given as −0.68 log10 copies/mL.

In the case of “LY-CoV555: SARS-CoV-2 neutralizing antibody”, the “relative SARS-CoV-2 RNA decrease versus placebo” value (SARS-CoV-2 [1]; day 3) is listed as −0.64 log10 copies/mL and the “relative SARS-CoV-2 RNA decrease versus placebo” value (SARS-CoV-2 [1]; day 7) is listed as −0.45 log10 copies/mL.

With `CCO` [EtOH (63%), Ethanol] the “Virus CCID50 per well ± SD” value (SARS-CoV-2 [2]; contact time 2 minutes) was <1.7**** log CCID50 per 0.1 mL, the “LRV (log reduction value)” value (SARS-CoV-2 [2]; contact time 2 minutes) was over 2.2 log10 and the “Virus CCID50 per well ± SD” value (SARS-CoV-2 [2]; contact time 10 minutes) was <1.7**** log CCID50 per 0.1 mL. For the same molecule, the “LRV (log reduction value)” value (SARS-CoV-2 [2]; contact time 10 minutes) was over 2.2 log10 and the cytotoxicity in culture (Vero 76 cells) was “cytotoxic”.
